Where two headings read alike, the source gives them in different places. Numbered stars: 1 amine (or outer) side, 2 acyl side, 3 side chain; on linkers, the order of the positions; unused ones are H or OH. Square brackets hold non-standard residues; d marks the D form. Peptide text beside a SMILES is read from it. NMeAla(5-Cl-benzothien-3-yl) = CN[C@@H](Cc1csc2ccc(Cl)cc12)C(=O)O; X13 = CN([C@@H](Cc1cn(Cc2ccc(Br)cc2)c2ccc(F)cc12)C(=O)[*:2])[*:1]; X18 = Cc1ccc(Cn2cc(C[C@@H](C(=O)[*:2])N(C)[*:1])c3ccccc32)cc1; X15 = CCn1cc(C[C@@H](C(=O)[*:2])N(C)[*:1])c2ccccc21; X16 = CN([C@@H](Cc1csc2c(Cl)cccc12)C(=O)[*:2])[*:1]; Ala(1-cyclohexenyl) = N[C@@H](CC1=CCCCC1)C(=O)O; Butanoyl(2R-oxy,4-CN) = N#CCC[C@@H](O)C(=O)O; X21 = CN([C@@H](CC1=CCCC1)C(=O)[*:2])[*:1]; Abu(4,4,4-F3) = N[C@@H](CC(F)(F)F)C(=O)O; X12 = O=C([C@H](CC1=CCCC1)N[*:1])[*:2]; NMeL = CN[C@@H](CC(C)C)C(=O)O; NMeA = CN[C@@H](C)C(=O)O
Assays:
Assay type in all cases: cell-based
[1] = system: PD1-ss+10aa/Gaussia Luciferase; assay: Dox induced PD1-ss-Gluc assay; conditions: Flp-In 293 T-REx cells, doxycycline, 24 hours; read-out: PD1ss Gluc IC50
How it was run: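 Stable Flp-In 293 T-REx line expressing doxycycline-inducible Gaussia luciferase fused to the PD1 signal sequence plus 10 amino acids. Cells plated the day before, then exposed to compound dilutions in DMSO/media containing doxycycline at 37 °C, 5% CO2.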

[2] = system: TNFα-FL/Gaussia Luciferase; assay: Dox induced TNFα-FL-Gluc assay; conditions: read-out: TNFa FL Gluc IC50
How it was run: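 Stable Flp-In 293 T-REx line expressing full-length TNFα (aa 1-233) fused at its C-terminus to Gaussia luciferase under doxycycline-inducible control. Cells plated the day before, then given compound dilutions in DMSO/media containing doxycycline and incubated at 37 °C, 5% CO2.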

[3] = system: NCI-H929 multiple myeloma cell line; assay: H929 assay (cell viability, Celltiter-Glo); conditions: Homo sapiens, NCI-H929, read-out: H929 EC50
How it was run: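 Cells plated in RPMI 1640 with 10% FBS and 2 mM glutamine, treated with compound dilutions in DMSO/media. Incubation 48 h at 37° C, 5% CO2. Viability from luciferase luminescence signal.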

[4] = system: Prl-ss+10aa/Gaussia Luciferase; assay: Prl-ss-Gluc assay (constitutively active or 24 hr Dox inducible); conditions: read-out: Prl IC50
Excerpt: Constitutively Active Prl-ss-Gluc Assay
Flp-In 293 T-REx™ cells were transfected with pcDNA™5/FRT plasmid inserted with cDNA encoding Gaussia Luciferase fused to the 3′ end of cDNA encoding Prl signal sequence plus 10 amino acids (N-[…]-C) (SEQ ID NO:4). Transfected cells were selected for resistance to the selectable markers Hygromycin and Blasticidin to create a stable cell line that constitutively expressed the Prlss+10aa/Gaussia Luciferase fusion protein. The day before assay, cells were trypsinized and plated in 384-well tissue culture plates. The next day, culture media was removed from the wells and replaced with fresh media. Compound dilutions in DMSO/media were added to the wells and incubated at 37° C., 5% CO2.
24 hr Dox Inducible Prl-ss-Gluc Assay
Flp-In 293 T-REx™ cells were transfected with pcDNA™5/FRT/TO plasmid inserted with cDNA encoding Gaussia Luciferase fused to the 3′ end of cDNA encoding Prl signal sequence plus 10 amino acids (N-[…]-C) (SEQ ID NO:5). Transfected cells were selected for resistance to the selectable markers Hygromycin and Blasticidin to create a stable cell line that contained the Prl-ss+10aa/Gaussia Luciferase cDNA insert whose expression was regulated under the T-REx™ system. The day before assay, cells were trypsinized and plated in 384-well tissue culture plates. The next day, compound dilutions in DMSO/media containing doxycycline were added to the wells and incubated at 37° C., 5% CO2.

[5] = system: HER3ss-Gluc; assay: HER3ss assay; conditions: HEK-293T T-rex cells, transient transfection, doxycycline, 24 h; read-out: HER3 ss IC50
Method: The mature domain of secreted luciferase from Gaussia princeps (GLuc) was cloned into pcDNA5/FRT/TO. The signal sequence plus four amino acids of the mature domain from HER3 ([…]) (SEQ ID NO:8) were cloned upstream of GLuc mature domain and used in transient transfection experiment. HEK-293T T-rex cells were cultured in Dulbecco's modified Eagle's medium with 10% FBS at 5% CO2. Cells were plated 1×10e6 cells per well in a 6-well plate and incubated for 6 h. Cells were transiently transfected with HER3ss-Gluc using Lipofectamine 2000 (Invitrogen). After overnight incubation, transfected cells were replated in a clear-bottomed, black 96-well plate at a density of 20,000 cells per well. Six hours after plating, the cells were treated with doxycycline (1 μg/ml) and increasing concentrations of the indicated compounds for 24 h. Secreted luciferase in the conditioned media was quantified by luminescence using the BioLux Gaussia Luciferase Assay Kit (New England Biolabs, Ipswich, Mass., USA) and a SpectraMax M5 plate reader (Molecular Devices).

[6] = system: U266B1 multiple myeloma cell line; assay: U266 assay (cell viability, Celltiter-Glo); conditions: Homo sapiens, U-266
Method: Cells were plated in 384-well tissue culture plates and treated with compound dilutions in DMSO/media. Plates were incubated at 37° C., 5% CO2 for 48 hours. After 48 hours, Celltiter-Glo@ (Promega) was added to each well and luciferase signal was quantified using Tecan Infinite M1000 Pro for cell viability determination.

[7] = Flp-In 293 T-REx cells, doxycycline, 24 hours
[8] = Flp-In 293 T-REx cells, 24 hours

Structure (SMILES)	IC50 [1] [nM]	IC50 ([2]; I.A.) [nM]	EC50 ([3]; I.A.) [nM]	IC50 ([4]; I.A.) [nM]	IC50 [5] [nM]	EC50 ([6]; I.A.) [nM]	IC50 [2, 7] [nM]	EC50 ([3]; 48 hours, cell viability) [nM]	IC50 [4, 8] [nM]	EC50 ([6]; 48 hours, cell viability) [nM]
CC(C)C[C@@H]1NC(=O)[C@H](Cc2csc3ccc(Cl)cc23)N(C)C(=O)[C@H](CC(C)C)NC(=O)[C@H](CC2=CCCC2)N(C)C(=O)[C@H](CC(F)(F)F)NC(=O)[C@@H](CCC#N)OC(=O)[C@H](C)N(C)C1=O [C-81] (cyclo(L[NMeA][Butanoyl(2R-oxy,4-CN)][Abu(4,4,4-F3)][X21]L[NMeAla(5-Cl-benzothien-3-yl)]))	934	> 25000	> 25000	> 25000	88	> 25000	–	–	–	–
CC(C)C[C@@H]1NC(=O)[C@H](Cc2csc3ccc(Cl)cc23)N(C)C(=O)[C@H](CC(C)C)NC(=O)[C@H](CC(C)C)N(C)C(=O)[C@H](CC2=CCCCC2)NC(=O)[C@@H](CCC#N)OC(=O)[C@H](C)N(C)C1=O [C-99] (cyclo(L[NMeA][Butanoyl(2R-oxy,4-CN)][Ala(1-cyclohexenyl)][NMeL]L[NMeAla(5-Cl-benzothien-3-yl)]))	149	–	–	–	30	> 25000	605	5260	19800	–
CC(C)C[C@@H]1NC(=O)[C@H](Cc2cn(Cc3ccc(Br)cc3)c3ccc(F)cc23)N(C)C(=O)[C@H](CC(F)(F)F)NC(=O)[C@H](CC(C)C)N(C)C(=O)[C@H](CC(F)(F)F)NC(=O)[C@@H](CCC#N)OC(=O)[C@H](C)N(C)C1=O [C-82] (cyclo(L[NMeA][Butanoyl(2R-oxy,4-CN)][Abu(4,4,4-F3)][NMeL][Abu(4,4,4-F3)][X13]))	42	–	–	–	98	> 25000	104	649	506	–
CC(C)C[C@@H]1NC(=O)[C@H](Cc2csc3ccc(Cl)cc23)N(C)C(=O)[C@H](CC(F)(F)F)NC(=O)[C@H](CC(C)C)N(C)C(=O)[C@H](CC(C)C)NC(=O)[C@@H](CCC#N)OC(=O)[C@H](C)N(C)C1=O [C-92] (cyclo(L[NMeA][Butanoyl(2R-oxy,4-CN)]L[NMeL][Abu(4,4,4-F3)][NMeAla(5-Cl-benzothien-3-yl)]))	813	–	–	> 25000	98	> 25000	3860	9880	–	–
CC(C)C[C@@H]1NC(=O)[C@H](Cc2csc3c(Cl)cccc23)N(C)C(=O)[C@H](CC(C)C)NC(=O)[C@H](CC(C)C)N(C)C(=O)[C@H](CC(F)(F)F)NC(=O)[C@@H](CCC#N)OC(=O)[C@H](C)N(C)C1=O [C-94] (cyclo(L[NMeA][Butanoyl(2R-oxy,4-CN)][Abu(4,4,4-F3)][NMeL]L[X16]))	425	–	–	–	74	> 25000	1240	6050	19300	–
CCn1cc(C[C@H]2C(=O)N[C@@H](CC(C)C)C(=O)N(C)[C@@H](C)C(=O)O[C@H](CCC#N)C(=O)N[C@@H](CC(F)(F)F)C(=O)N(C)[C@@H](CC(C)C)C(=O)N[C@@H](CC(F)(F)F)C(=O)N2C)c2ccccc21 [C-79] (cyclo(L[NMeA][Butanoyl(2R-oxy,4-CN)][Abu(4,4,4-F3)][NMeL][Abu(4,4,4-F3)][X15]))	390	–	–	> 25000	112	> 25000	1490	4740	–	–
CC(C)C[C@@H]1NC(=O)[C@H](Cc2csc3ccc(Cl)cc23)N(C)C(=O)[C@H](CC(C)C)NC(=O)[C@H](CC(C)C)N(C)C(=O)[C@H](CC(C)C)NC(=O)[C@@H](CCC#N)OC(=O)[C@H](C)N(C)C1=O [C-93] (HELM PEPTIDE1{L.[meA].[N#CCC[C@@H](O[*:1])C(=O)[*:2]].L.[meL].L.[CN([C@@H](Cc1csc2ccc(Cl)cc12)C(=O)[*:2])[*:1]]}$PEPTIDE1,PEPTIDE1,1:R1-7:R2$$$V2.0)	278	–	–	–	38	–	672	3390	5700	16200
Cc1ccc(Cn2cc(C[C@H]3C(=O)N[C@@H](CC(C)C)C(=O)N(C)[C@@H](C)C(=O)O[C@H](CCC#N)C(=O)N[C@@H](CC(F)(F)F)C(=O)N(C)[C@@H](CC(C)C)C(=O)N[C@@H](CC(F)(F)F)C(=O)N3C)c3ccccc32)cc1 [C-83] (cyclo(L[NMeA][Butanoyl(2R-oxy,4-CN)][Abu(4,4,4-F3)][NMeL][Abu(4,4,4-F3)][X18]))	42	–	–	–	81	> 25000	103	603	1090	–
CC(C)C[C@@H]1NC(=O)[C@H](Cc2csc3ccc(Cl)cc23)N(C)C(=O)[C@H](CC(C)C)NC(=O)[C@H](CC(C)C)N(C)C(=O)[C@H](CC2=CCCC2)NC(=O)[C@@H](CCC#N)OC(=O)[C@H](C)N(C)C1=O [C-98] (cyclo(L[NMeA][Butanoyl(2R-oxy,4-CN)][X12][NMeL]L[NMeAla(5-Cl-benzothien-3-yl)]))	259	–	–	–	35	> 25000	889	4000	17900	–
CC(C)C[C@@H]1NC(=O)[C@H](Cc2csc3ccc(Cl)cc23)N(C)C(=O)[C@H](CC(F)(F)F)NC(=O)[C@H](CC(C)C)N(C)C(=O)[C@H](CC(F)(F)F)NC(=O)[C@@H](CCC#N)OC(=O)[C@H](C)N(C)C1=O [C-90] (cyclo(L[NMeA][Butanoyl(2R-oxy,4-CN)][Abu(4,4,4-F3)][NMeL][Abu(4,4,4-F3)][NMeAla(5-Cl-benzothien-3-yl)]))	520	–	> 25000	> 25000	38	> 25000	2880	–	–	–
CC(C)C[C@@H]1NC(=O)[C@H](CC(C)C)N(C)C(=O)[C@H](CC(F)(F)F)NC(=O)[C@@H](CCC#N)OC(=O)[C@H](C)N(C)C(=O)[C@H](CC2=CCCC2)NC(=O)[C@H](Cc2csc3ccc(Cl)cc23)N(C)C1=O [C-89] (cyclo(L[NMeAla(5-Cl-benzothien-3-yl)][X12][NMeA][Butanoyl(2R-oxy,4-CN)][Abu(4,4,4-F3)][NMeL]))	172	–	–	> 25000	33	> 25000	879	3730	–	–
